Source: patent US20260207388A1, “WOUND DRESSING” (ConvaTec Limited, priority 2023, published 2026)

Columns and labels:
Details in all cases: EDTA at concentrations of 0.1-40 wt. % by volume
[1] = system: vancomycin resistant Enterococcus (VRE)
Pseudomonas aeruginosa = system: Pseudomonas aeruginosa
Serratia marcescens = system: Serratia marcescens
[2] = system: methicillin resistant Staphylococcus aureus (MRSA)

Measured: killing of microorganisms in the planktonic and biofilm state

O=C(O)CN(CCN(CC(=O)O)CC(=O)O)CC(=O)O [EDTA, ethylenediaminetetra-acetic acid]
effectively killed: all assays above
